Experimental data reported in PubChem BioAssay AID2739 (Broad Institute, 2010).
Inconclusive results are not listed. Calls of active or inactive are those of the source.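 The calls were made as follows: active = IC50 no more than tenfold above the highest tested concentration; inconclusive = flat fit with activity between 30% and 70%, or an invalid poor fit; inactive = IC50 beyond tenfold over the top concentration.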

These compounds were tested against Zinc finger protein mex-5 (Caenorhabditis elegans) (UniProt Q9XUB2) (assay: blockers of C. elegans MEX-5/TCR-2 RNA interaction – biochemical, fluorescence polarization, MBP-MEX-5, FITC-TCR2 RNA, dose response (AID 2739)). Settings: MBP-MEX-5 / FITC-TCR2 RNA fluorescence polarization, 1 h.
Sequence of Zinc finger protein mex-5 (Caenorhabditis elegans) (Q9XUB2 whole entry, looked up): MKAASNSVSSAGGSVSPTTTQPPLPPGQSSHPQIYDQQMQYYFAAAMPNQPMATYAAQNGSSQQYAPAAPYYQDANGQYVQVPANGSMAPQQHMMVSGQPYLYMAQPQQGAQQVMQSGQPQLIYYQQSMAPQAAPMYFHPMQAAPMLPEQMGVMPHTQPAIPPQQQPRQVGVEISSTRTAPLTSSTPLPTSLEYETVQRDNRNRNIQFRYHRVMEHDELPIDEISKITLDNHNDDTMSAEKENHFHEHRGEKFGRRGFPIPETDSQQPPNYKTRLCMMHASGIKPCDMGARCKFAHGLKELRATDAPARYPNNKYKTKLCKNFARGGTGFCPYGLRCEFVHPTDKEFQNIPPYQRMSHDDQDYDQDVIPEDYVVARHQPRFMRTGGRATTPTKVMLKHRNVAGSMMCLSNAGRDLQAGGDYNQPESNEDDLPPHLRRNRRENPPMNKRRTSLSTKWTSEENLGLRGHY
With `CCN(CC)c1ccc(/C=C2\C(=O)NC(=S)N(c3ccc(OC)cc3OC)C2=O)o1` the IC50 was > 135000 nM (inactive).
For `Cn1ncc2c(NNC(=O)Cc3ccccc3)ncnc21`, the IC50 was 1310 nM.
Compound `Cc1nc(N=Nc2ccc(O)cc2)n[nH]1` has an IC50 of 16100 nM.
With `NC(CO)C(=O)NNCc1ccc(O)c(O)c1O` (stereo not drawn) the IC50 was > 135000 nM (inactive).
`CCOCCCNC(=O)CCC(=O)NNc1nc2ccccc2c2nc(C)nn12` was tested, and the IC50 was 2280 nM.
Compound `Cc1cnc(C(=O)NNC(=O)c2ccc(Br)cc2)cn1` has an IC50 of 1080 nM.
With `CCOC(=O)c1cc(CC)sc1/N=C/c1c(O)[nH]c(=S)[nH]c1=O` the IC50 was > 350000 nM (inactive).
With `COCCCNC(=O)CCC(=O)NNc1nc2ccccc2c2nc(C)nn12` the IC50 was 1640 nM.
For `CCN(CC)c1ccc(/C=C2\C(=O)NC(=S)N(C)C2=O)o1`, the IC50 was > 135000 nM (inactive).
With `O=C(NNC(=O)c1ccccc1[N+](=O)[O-])c1csc(N2CCOCC2)n1` the IC50 was 1310 nM.
In the case of `Cc1nc2ccccc2c(=O)n1/N=C/c1ccc(O)c(O)c1O`, the IC50 is reported as 924 nM.
Compound `CCOC(=O)C1CCN(C(=O)CCC(=O)NNc2nc3ccccc3c3nc(C)nn23)CC1` has an IC50 of 2390 nM.
`Cc1ncc(CO)c(/C=N/NC(=O)c2cc(Br)ccc2O)c1O` showed an IC50 of 7890 nM.
Compound `COCCNC(=O)CCC(=O)NNc1nc2ccccc2c2nc(C)nn12` has an IC50 of 1490 nM.
`CCCCN(C)C(=O)CCC(=O)NNc1nc2ccccc2c2nc(C)nn12` gave an IC50 of 4170 nM.
Work on `COc1ccc(-c2cn[nH]c2-c2ccc(OCC(=O)NN)cc2O)cc1OC` yielded an IC50 of 1580 nM.
In the case of `CCc1ccccc1N1C(=O)/C(=C\c2ccc(N3CCN(C)CC3)o2)C(=O)NC1=S`, the IC50 is reported as > 135000 nM (inactive).
For `N=c1c(C(=O)NC2CCCCC2)cc2c(=O)n3ccccc3nc2n1Cc1cccnc1`, the IC50 was > 350000 nM (inactive).
In the case of `Cc1ccc(N2C(=O)NC(=O)/C(=C\c3cc(C)n(-c4ccc(C(=O)O)cc4)c3C)C2=O)cc1`, the IC50 is reported as > 135000 nM (inactive).
`CCc1ccc(C(=O)NNC(=O)c2ccc(=O)n(C)n2)cc1` was tested, and the IC50 was 9250 nM.
For `N=c1c(C(=O)NC2CCCCC2)cc2c(=O)n3ccccc3nc2n1Cc1ccc(F)cc1`, the IC50 was > 135000 nM (inactive).
`CC1=C(C(=O)OCc2ccccc2)C(c2ccccc2[N+](=O)[O-])NC(=O)N1C` (stereo not drawn) gave an IC50 of 32400 nM.
Work on `O=c1c(O)cccc2cc(O)c(O)c(O)c12` yielded an IC50 of 2030 nM.
